# Measurements as given in US5614526A, “Use of phenoxy-piperzine derivatives” (Hoffmann-La Roche Inc., priority 1995, dated 1997).
# Target: T1, dopamine-D4 receptor (Homo sapiens, UniProt P21917)
# T1 construct: expressed in transfected cells; host or cells: CHO (Chinese Hamster Ovary) cells, D4-CHO; crude membranes
# T1 sequence (P21917 1-419): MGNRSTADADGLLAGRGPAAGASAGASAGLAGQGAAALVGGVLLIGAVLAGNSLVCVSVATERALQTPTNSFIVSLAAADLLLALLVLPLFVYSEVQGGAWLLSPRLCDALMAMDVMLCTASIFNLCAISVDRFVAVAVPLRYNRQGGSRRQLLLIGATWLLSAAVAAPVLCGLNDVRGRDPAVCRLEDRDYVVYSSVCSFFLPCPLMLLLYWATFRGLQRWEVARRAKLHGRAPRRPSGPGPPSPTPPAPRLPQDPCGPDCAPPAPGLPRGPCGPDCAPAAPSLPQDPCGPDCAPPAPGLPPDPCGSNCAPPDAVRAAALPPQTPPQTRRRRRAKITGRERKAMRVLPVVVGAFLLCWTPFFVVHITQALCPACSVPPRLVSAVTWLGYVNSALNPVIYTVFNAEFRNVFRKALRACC
# Assay: Binding at the D4 receptor, [3H]spiperone displacement, membranes of D4-CHO cells
# Conditions: Table 1, 200 pM [3H]spiperone, room temperature, 90 minutes
# Experimental: Compounds of formula I were characterized by their binding behavior at the D4 receptor. CHO cells (Chinese Hamster Ovary) were used in the test. Crude membranes were isolated by ultracentrifugation from D4 -CHO and D2 -CHO cells and were stored at -80° C. After thawing and homogenizing in a buffer solution (50mM Tris, 1 mM EDTA, 5 mM KCl, 1.5 mM CaCl2, 4 mM MgCl2, pH 7.4) they were incubated at room temperature for 90 minutes with 200 pM [^3 H] spiperone and an increasing concentration (1×10^-11 M to 1×10^-4 M) of test compound. A non-specific binding was established by incubating in the presence of 1×10^-5 M (+)-butaclamol. The unbound radioligand was removed by filtration through a GF/C glass filter and the bound radioactivity was determined by scintillation in a Packard TopCount. […] The calculation of the value was effected with ligand.
row,Ki [nM],Compound
1,< 100,"COc1ccccc1N1CCN(CC(O)COc2ccccc2NC(N)=O)CC1 (stereo not drawn) [Compound 18, [2-[2-Hydroxy-3-[4-(2-methoxy-phenyl)-piperazin-1-yl]propoxy]-phenyl]-urea]"
2,< 100,"COc1ccccc1N1CCN(CC(COc2ccccc2NC(C)=O)OC(C)=O)CC1 (stereo not drawn) [Compound 30, Ethyl 2-(2-acetylamino-phenoxy)-1-[4-(2-methoxy-phenyl)-piperazin-1-ylmethyl]-acetate]"
3,< 100,"CC(=O)Nc1ccccc1OCC(O)CN1CCN(c2ccccc2O)CC1 (stereo not drawn) [Compound 8, N-[2-[2-Hydroxy-3-[4-(2-hydroxy-phenyl)-piperazin-1-yl]-propoxy]-phenyl]-acetamide]"
4,< 100,"OC(COc1ccccc1)CN1CCN(c2ccccc2)CC1 (stereo not drawn) [Compound 1, 1-Phenoxy-3-(4-phenyl-piperazin-1-yl)-propan-2-ol]"
5,< 100,"CC(=O)Nc1ccccc1OCC(O)CN1CCN(c2ccccc2C)CC1 (stereo not drawn) [Compound 6, N-[2-[2-Hydroxy-3-(4-o-tolyl-piperazin-1-yl)-propoxy]-phenly]-acetamide]"
6,< 100,"COc1ccccc1N1CCN(CC(O)COc2ccccc2NC(C)=O)CC1 (single isomer, unassigned) [11(+), [+]-N-[2-[2-Hydroxy-3-[4-(2-methoxy-phenyl)-piperazin-1-yl]-propoxy]phenyl]-acetamide]"
7,< 100,"COc1ccccc1N1CCN(CC(O)COc2cc(C)ccc2NC(C)=O)CC1 (stereo not drawn) [Compound 20, N-[2-[2-Hydroxy-3-[4-(2-methoxy-phenyl)-piperazin-1-yl]-propoxy]-4-methyl-phenyl]-acetamide]"
8,< 100,"Nc1ccccc1OCC(O)CN1CCN(c2ccccc2[N+](=O)[O-])CC1 (stereo not drawn) [Compound 22, 1-(2-Amino-phenoxy)-3-[4-(2-nitro-phenyl)-piperazin-1-yl]-propan-2-ol]"
9,< 100,"COc1ccccc1N1CCN(CC(COc2ccccc2NC(C)=O)OC(C)=O)CC1 (single isomer, unassigned) [31(+), Ethyl [+]-2-(2-acetylamino-phenoxy)-1-[4-(2-methoxy-phenyl)-piperazin-1-ylmethyl]acetate]"
10,< 100,"Nc1ccccc1OCC(O)CN1CCN(c2ccccc2)CC1 (stereo not drawn) [Compound 2, 1-(2-Amino-phenoxy)-3-(4-phenyl-piperazin-1-yl)-propan-2-ol]"
11,< 100,"CCCCCC(=O)Nc1ccccc1OCC(O)CN1CCN(c2ccccc2OC)CC1 (stereo not drawn) [Compound 14, Hexanoic acid [2-[2-hydroxy-3-[4-(2-methoxy-phenyl)-piperazin-1-yl]propoxy]-phenyl]-amide]"
12,< 100,"NC(=O)c1ccccc1OCC(O)CN1CCN(c2ccccc2)CC1 (stereo not drawn) [Compound 4, 2-[2-Hydroxy-3-(4-phenyl-piperazin-1-yl)-propoxy]-benzamide]"
13,< 100,"CCC(=O)Nc1ccccc1OCC(O)CN1CCN(c2ccccc2OC)CC1 (stereo not drawn) [Compound 13, N-[2-[2-Hydroxy-3-[4-(2-methoxy-phenyl)-piperazin-1-yl]-propoxy]-phenyl]propionamide]"
14,< 100,"COc1ccccc1N1CCN(CC(O)COc2ccccc2N)CC1 (single isomer, unassigned) [9(+), [+]-1-(2-Amino-phenoxy)-3-[4(2-methoxy-phenyl)-piperazin-1-yl]-propan-2-ol]"

# Continued, compound first:
row,Compound,Ki [nM]
1,"C/C=C/C(=O)Nc1ccccc1OCC(O)CN1CCN(c2ccccc2OC)CC1 (single isomer, unassigned) [Compound 16, [+]-(E)-But-2-enolic acid [2-[2-hydroxy-3-[4-(2-methoxy-phenyl)-piperazin-1-yl]-propoxy]-phenyl]-amide]",< 100
2,"CCOc1ccccc1N1CCN(CC(O)COc2ccccc2NC(=O)CC)CC1 (stereo not drawn) [Compound 21, N-[2-[3-[4-(2-Ethoxy-phenyl)-piperazin-1-yl]-2-hydroxy-propoxy]-phenyl]propionamide]",< 100
3,"COc1ccccc1N1CCN(CC(O)COc2ccccc2NC(C)=O)CC1 (single isomer, unassigned) [12(-), [-]-N-[2-[2-Hydroxy-3-[4-(2-methoxy-phenyl)-piperazin-1-yl]-propoxy]phenyl]-acetamide]",< 100
4,"COc1ccccc1N1CCN(CC(O)COc2ccc(C)cc2NC(C)=O)CC1 (stereo not drawn) [Compound 19, N-[2-[2-Hydroxy-3-[4-(2-methoxy-phenyl)-piperazin-1-yl]-proxpoxy]-5-methyl-phenyl]-acetamide]",< 100
5,"COc1ccccc1N1CCN(CC(O)COc2ccccc2NC(=O)c2ccco2)CC1 (stereo not drawn) [Compound 17, Furan-2-carboxylic acid [2-[2hydroxy-3-[4-(2-methoxy-phenyl)piperazin-1-yl]-propoxy]-phenyl]-amide]",< 100
6,"CC(=O)c1ccccc1OCC(O)CN1CCN(c2ccccc2)CC1 (stereo not drawn) [Compound 3, 1-[2-[2-Hydroxy-3-(4-phenyl-piperazin-1-yl)-propoxy]-phenyl]-ethanone]",< 100
7,"OC(COc1cccc(C(F)(F)F)c1)CN1CCN(c2ccc(Cl)cc2)CC1 (stereo not drawn) [Compound 5, 1-[4-(4-Chloro-phenyl)-piperazin-1-yl]-3-(3-trifluoro-methyl-phenoxy)-propan-2-ol]",< 100
8,"CC(=O)Nc1ccccc1OCC(O)CN1CCN(c2ccccc2C(F)(F)F)CC1 (stereo not drawn) [Compound 7, N-[2-[2-Hydroxy-3-[4-(2-trifluoromethyl-phenyl)-piperazin-1yl]-propoxy]phenyl]-acetamide]",< 100
9,"COc1ccccc1N1CCN(CC(O)COc2ccccc2NC(=O)C(C)(C)C)CC1 (stereo not drawn) [Compound 15, N-[2-[2-Hydroxy-3-[4-(2-methoxy-phenyl)-piperazin-1-yl]-propoxy]-phenyl]-2,2-dimethyl-propionamide]",< 100
10,"COc1ccccc1N1CCN(CC(O)COc2ccccc2NC(C)=O)CC1 (racemic) [10(rac), N-[2-[2-Hydroxy-3-[4-(2-methoxy-phenyl)-piperazin-1-yl]-propoxy]-phenyl]-acetamide]",< 100

# Same assay, conditions: Table 2, 200 pM [3H]spiperone, room temperature, 90 minutes
row,Ki [nM],Compound
1,29,CCC(=O)Nc1ccccc1OCC(O)CN1CCN(c2ccccc2)CC1 (stereo not drawn) [Compound 24]
2,8.7,CC(=O)Nc1ccccc1OCC(O)CN1CCN(c2ccccc2[N+](=O)[O-])CC1 (stereo not drawn) [Compound 29]
3,3.2,COc1ccccc1N1CCN(CC(O)COc2ccccc2NS(C)(=O)=O)CC1 (stereo not drawn) [Compound 26]
4,10.2,COc1cc(O)ccc1N1CCN(CC(O)COc2ccccc2NC(C)=O)CC1 (stereo not drawn) [Compound 25]
5,9.6,Cc1cccc(OCC(O)CN2CCN(c3ccccc3)CC2)c1 (stereo not drawn) [Compound 23]
6,15,COc1ccccc1N1CCN(CC(O)COc2ccc([N+](=O)[O-])cc2NC(C)=O)CC1 (stereo not drawn) [Compound 27]

# Tested on: D2 receptor
# Assay: Binding at the D2 receptor, [3H]spiperone displacement, membranes of D2-CHO cells (selectivity vs. D4)
# Conditions: ratio of the Ki values at the D2 receptor and at the D4 receptor
# Experimental: CHO cells (Chinese Hamster Ovary) were used in the test. Crude membranes were isolated by ultracentrifugation from D4 -CHO and D2 -CHO cells and were stored at -80° C. After thawing and homogenizing in a buffer solution (50mM Tris, 1 mM EDTA, 5 mM KCl, 1.5 mM CaCl2, 4 mM MgCl2, pH 7.4) they were incubated at room temperature for 90 minutes with 200 pM [^3 H] spiperone and an increasing concentration (1×10^-11 M to 1×10^-4 M) of test compound. A non-specific binding was established by incubating in the presence of 1×10^-5 M (+)-butaclamol. The unbound radioligand was removed by filtration through a GF/C glass filter and the bound radioactivity was determined by scintillation in a Packard TopCount.
# Compounds of formula I were compared with respect to their D2 receptor activity.
row,Compound,Sel. vs. D2
1,CCC(=O)Nc1ccccc1OCC(O)CN1CCN(c2ccccc2)CC1 (stereo not drawn) [Compound 24],233
2,CC(=O)Nc1ccccc1OCC(O)CN1CCN(c2ccccc2[N+](=O)[O-])CC1 (stereo not drawn) [Compound 29],360
3,COc1ccccc1N1CCN(CC(O)COc2ccccc2NS(C)(=O)=O)CC1 (stereo not drawn) [Compound 26],177
4,COc1cc(O)ccc1N1CCN(CC(O)COc2ccccc2NC(C)=O)CC1 (stereo not drawn) [Compound 25],1370
5,Cc1cccc(OCC(O)CN2CCN(c3ccccc3)CC2)c1 (stereo not drawn) [Compound 23],300
6,COc1ccccc1N1CCN(CC(O)COc2ccc([N+](=O)[O-])cc2NC(C)=O)CC1 (stereo not drawn) [Compound 27],112
